Assay results as given in ChEMBL document CHEMBL1155707, “New lipopeptides from the Caribbean cyanobacterium Lyngbya majuscula” (J Nat Prod, 2001).

How the values were obtained:
Type in all cases: functional, cell-based
P388 = assay: Cytotoxicity against mouse P388 cells
A549 = assay: Cytotoxicity against human A549 cells
HT-29 = assay: Cytotoxicity against human HT-29 cells
SK-MEL-28 = assay: Cytotoxicity against human SK-MEL-28 cells

Measured: IC50

C[C@@H](c1nccs1)N(C)C(=O)[C@H](C[C@H](C)C(Cl)(Cl)Cl)NC(=O)C[C@H](C)C(Cl)(Cl)Cl [PSEUDODYSIDENIN]
> 1 µg/mL: all assays above
